Reference: patent publication US6537990B1, “Combined preparations comprising morpholine anthracyclines and anticancer agent” (priority 1999, dated 2003)
Where “and” joins values, the source holds several entries; their conditions need not be identical. Equal entries are not always repeated. Structures can show the parent of a compound that is named as a salt. Where two headings read alike, the source gives them in different places.

How the values were obtained:
[1] = system: tumor cells resistant to anthracyclines and presenting the mdr phenotype; settings: in vitro and in vivo; cited from earlier work
[2] = system: tumor cells resistant to L-PAM, cisplatin (cDDP), CTX or Topoisomerase II inhibitors; settings: cited from earlier work
[3] = system: disseminated L1210 murine leukemia; test: Antileukemic activity against disseminated L1210 murine leukemia; assay type: in vivo, CD2F1 mice
[4] = in vivo; cited from earlier work

SMILES | Activity on tumor cells resistant to anthracyclines and presenting the mdr phenotype [1] | Cross-resistance on resistant tumor cells ([2]; tumor cells resistant to CTX, L-Pam and cDDP) | ILS % (Increased in Life Span) ([3]; PNU-152243 alone, 0.05 mg/Kg/day iv, days +1, 2) | Tox (Number of toxic deaths/number of mice) ([3]; PNU-152243 alone, 0.05 mg/Kg/day iv, days +1, 2, HCl, 0.05 mg/kg/day) | Tox (Number of toxic deaths/number of mice) ([3]; PNU-152243 alone, 0.05 mg/Kg/day iv, days +1, 2, listed as PNU 152243, HCl, 0.05 mg/kg/day) | Cross-resistance on resistant tumor cells ([2]; tumor cells resistant to L-PAM or cisplatin (cDDP), or to Topoisomerase II inhibitors (at-multidrug resistant)) | Optimal i.v. dose, fold less than that of doxorubicin [4] | ILS % (Increased in Life Span) ([3]; cDDP alone, 5.9 mg/Kg/day iv, day +3) | Tox (Number of toxic deaths/number of mice) ([3]; cDDP alone, 5.9 mg/Kg/day iv, day +3, 5.9 mg/kg/day) | ILS % (Increased in Life Span) ([3]; cDDP alone, 7.7 mg/Kg/day iv, day +3) | Tox (Number of toxic deaths/number of mice) ([3]; cDDP alone, 7.7 mg/Kg/day iv, day +3, 7.7 mg/kg/day)
CCC1(O)CC(OC2CC(N3CCOCC3)C(O)C(C)O2)c2c(O)c3c(c(O)c2C1O)C(=O)c1cccc(O)c1C3=O (stereo not drawn) [MX2, 3′-deamino-3′(4-morpholinyl)-13-deoxo-10-hydroxy-carminomycin] | active | No cross-resistance | – | – | – | – | – | – | – | – | –
COc1cccc2c1C(=O)c1c(O)c3c(c(O)c1C2=O)C[C@@](O)(C(=O)CO)C[C@@H]3O[C@H]1C[C@H](N2CCO[C@H](OC)C2)[C@H](O)[C@H](C)O1 [PNU-152243, 3′deamino-3′(2-methoxy-4-morpholinyl)doxorubicin. HCl] | active | – | 50% | 0/10 | without toxicity | No cross-resistance | at least 80 fold | – | – | – | –
[NH2][Pt]([NH2])([Cl])[Cl] [cDDP, cisplatin] | – | – | – | – | – | – | – | 33% | without toxicity and 0/10 | 33% | without toxicity and 0/10
